The results in this text go back to PubChem BioAssay (NCI).

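Cells were grown in 96-well plates and exposed to each compound for 48 hours at five concentrations; endpoints were interpolated linearly between bracketing concentrations, or set to the highest concentration if not reached. Definition used: TGI = concentration required for complete inhibition of growth.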

Common to all, as to assay: NCI anticancer screen, dose series, 48 h
Test [1] concerns EKVX NSCLC.
For test [2], the system named is NCI-H226 lung.
In test [3] the test system is ACHN renal.
For test [4], the system named is SNB-75 CNS.
For test [5], the system named is K-562 leukemia.
The test system of test [6] is KM12 colon.
Test [7] deals with HCC-2998 colon.
Test [8] concerns CAKI-1 renal.
Test [9] has as its system HOP-92 NSCLC.
Test [10] has as its system DLD-1 colon.
Test [11] concerns SW-620 colon.
Test [12] deals with SK-OV-3 ovarian.
The test system of test [13] is NCI-H23 lung.
For test [14], the system named is M14 melanoma.
Test [15] relates to SF-295 CNS.
Test [16] has as its system SK-MEL-2 melanoma.
Test [17] has as its system SN12C renal.

Consider `O=C(CC(=O)c1ccccc1)C(=O)Nc1ccc(Cl)cc1`, for which the TGI in test [1], in test [2], in [3], in test [4], in test [5] and in [6] was greater than 100 µM throughout. Also, the TGI was greater than 100 µM in test [7]; greater than 100 µM in [8]; greater than 100 µM in test [9]; greater than 100 µM in test [10]; greater than 60.2 µM in [11]; greater than 100 µM in test [12]. In addition, the TGI in test [13], in test [14], in test [15], in [16] and in [17] was greater than 100 µM throughout.
Take `N#CNC1=NC(N)C(c2nc3ccccc3[nH]2)=C(CCCC(=O)Nc2cccc([N+](=O)[O-])c2)N1` (stereo not drawn): the TGI in test [1], in test [2], in [3], in test [4], in test [5] and in test [6] was greater than 100 µM each time. Also, the TGI in test [7], in test [8], in test [10], in [11], in test [12] and in test [13] was greater than 100 µM each time. For the same molecule, the TGI in test [14], in test [15], in [16] and in test [17] was greater than 100 µM each time.
Regarding `CC(C)N(C(=O)C12C3C4C1C1C2C3C41C(=O)N(C(C)C)C(C)C)C(C)C` (stereo not drawn), the TGI in test [1], in [2], in test [3], in [4], in test [5] and in test [6] was greater than 50 µM in each case. Besides, the TGI in test [7], in test [8], in test [10], in [11], in test [12] and in test [13] was greater than 50 µM each time. In addition, the TGI in [14], in test [15], in test [16] and in test [17] was greater than 50 µM in each case.
On to `CSC(=N)N1N=C2/C(=C/c3ccccc3)CCC[C@H]2[C@H]1c1ccccc1`, for which the TGI in [1] is 19.4 µM; in test [2], 11.2 µM; in [3] it was 11.8 µM; in [5] it was 6.09 µM; in [6] it was 23.2 µM; in test [7] it was 10.4 µM. Also, the TGI came to 19.5 µM in test [9]; 14.5 µM in test [10]; 15.3 µM in test [11]; 18.2 µM in [12]; 19.2 µM in test [13]; 14.8 µM in test [14]. In addition, the TGI in test [15] was found to be 16.9 µM; in test [16] it was 15.4 µM; in test [17], 14.1 µM.
As for `CC(=O)Nc1ccc(S(=O)(=O)NN(C)S(=O)(=O)c2ccc(C)cc2)cc1`, the TGI in [1], in test [3], in test [5], in [6], in test [7] and in test [8] was greater than 100 µM throughout. For the same molecule, the TGI in test [9], in test [10], in test [11], in test [12], in test [13] and in test [14] was greater than 100 µM throughout. Moreover, the TGI in test [15], in test [16] and in [17] was greater than 100 µM throughout.
Take `Cc1nnc(N/N=C(/C(=O)C(C#N)c2ccc(Cl)cc2)C(C#N)c2ccc(Cl)cc2)n1N` (stereo not drawn): the TGI was found to be 33.5 µM in test [2]; 30.8 µM in [3]; 30.1 µM in test [4]; 45.4 µM in test [5]; 39.8 µM in test [6]; 34.2 µM in [7]. For the same molecule, the TGI was 43.1 µM in test [8]; greater than 100 µM in [9]; 42.4 µM in [10]; 37.3 µM in test [11]; 35.3 µM in test [13]; 38.7 µM in test [14]. In addition, the TGI was 30.9 µM in test [15], 34.5 µM in test [16] and 34.9 µM in [17].
On to `C/C(N=NS(=O)(=O)c1ccc(C)cc1)=C1\C=CC=CN1O`, for which the TGI in test [1], in [3], in test [4], in test [6], in [7] and in test [8] was greater than 100 µM throughout. Moreover, the TGI in test [9], in test [10], in [11], in test [12], in test [13] and in test [14] was greater than 100 µM each time. The TGI in test [15] and in [17] was greater than 100 µM each time.
Consider `Nc1nc2c(ncn2CCCC(c2ccccc2)P(=O)(O)O)c(=O)[nH]1` (stereo not drawn), for which the TGI in test [1], in test [3], in test [4], in test [5], in test [6] and in test [7] was greater than 100 µM each time. In addition, the TGI in [8], in [9], in test [10], in test [11], in test [12] and in [13] was greater than 100 µM in each case. The TGI in test [14], in test [15], in test [16] and in test [17] was greater than 100 µM throughout.
In the case of `Cn1nc(-c2ccccc2)c(C(=O)/C=C/c2ccc(Cl)cc2)c(N2CCOCC2)c1=O`, the TGI in test [1] came to 27.1 µM; in test [3], 17 µM; in test [5], 9.41 µM; in test [8], 19.7 µM; in test [9] it was 9.36 µM; in test [10], 13.6 µM. Also, the TGI in [11] came out at 21.5 µM; in [12] it was 19.7 µM; in test [13], 8.25 µM; in [14], 15.7 µM; in test [15] it was 4.79 µM; in [17], 29.2 µM.
Regarding `O=C(O)C12CC3CC(CC(F)(C3)C1)C2`, the TGI in test [1], in [3], in [4], in test [5], in test [6] and in test [7] was greater than 100 µM throughout. Moreover, the TGI in test [9], in test [10], in test [11], in [12], in test [13] and in [14] was greater than 100 µM in each case. The molecule further returned a TGI in [16] greater than 100 µM.
`Nc1nc2ncn(CC(O)CO)c2c(=O)[nH]1` (stereo not drawn): the TGI in [1], in test [2], in test [3], in [4], in test [5] and in test [6] was greater than 100 µM throughout. Also, the TGI in test [8], in test [9], in [10], in test [11], in test [12] and in test [14] was greater than 100 µM in each case. Also, the TGI in [15], in test [16] and in test [17] was greater than 100 µM in each case.
Regarding `O=C(Nc1nc2ncn(CCO)c2c(=O)[nH]1)c1ccccc1`, the TGI in test [1], in test [2], in [3], in test [4], in [5] and in test [6] was greater than 100 µM throughout. Moreover, the TGI in test [8], in [9], in test [10], in [11], in test [12] and in [14] was greater than 100 µM throughout. The TGI in test [15], in test [16] and in test [17] was greater than 100 µM in each case.
Turning to `CCc1ccccc1NC(=O)CC1NC(=O)CS1` (stereo not drawn), the TGI in test [1], in [2], in test [4], in [5], in test [6] and in test [7] was greater than 100 µM each time. Also, the TGI in [8], in test [9], in test [10], in test [11], in test [12] and in test [13] was greater than 100 µM in each case. Further, the TGI in [14], in [15], in [16] and in test [17] was greater than 100 µM in each case.
Regarding `CS(=O)(=O)C1(Br)S(=O)(=O)OCCOS1(=O)=O`, the TGI in test [1], in test [2], in test [3], in [4], in [5] and in [7] was greater than 100 µM in each case. Moreover, the TGI in [9], in [10], in test [11], in test [12], in test [13] and in test [14] was greater than 100 µM in each case. Moreover, the TGI in test [15], in test [16] and in test [17] was greater than 100 µM throughout.
With `COc1ccc(/C=C/c2cc(OC)c(OCc3ccccc3)c(OC)c2)cc1`, the TGI in test [1], in [2], in test [3], in test [4], in test [5] and in test [6] was greater than 100 µM throughout. Moreover, the TGI in [7], in [8], in test [9], in [10], in [11] and in test [12] was greater than 100 µM throughout. For the same molecule, the TGI in test [13], in test [14], in test [16] and in [17] was greater than 100 µM throughout.
In the case of `CN(C)CC(/C(Cc1ccccc1)=N\NC(=S)NN)c1ccccc1` (stereo not drawn), the TGI in test [2], in [3], in test [4], in test [5], in test [6] and in test [7] was greater than 100 µM each time. In addition, the TGI in test [8], in test [9], in test [10], in test [11], in test [12] and in [13] was greater than 100 µM each time. Besides, the TGI in test [14], in test [15] and in test [17] was greater than 100 µM each time.
For `O=c1ccc2ccccc2c2ccccc12`, the TGI in test [1] was determined as 35.8 µM; in [2], 15.1 µM; in [3], 12.4 µM; in test [4], 10.8 µM; in test [5], 33.1 µM; in test [6] it was 5.76 µM. Further, the TGI in [7] came out at 21.4 µM; in test [8] it was 8.55 µM; in [10], 14.7 µM; in [11], 10.9 µM; in test [12], 13 µM; in test [13], 6.33 µM. For the same molecule, the TGI came to 6.52 µM in [14], 13.3 µM in test [15], 16.2 µM in [16] and 6.44 µM in test [17].
As to `COC(=O)CCC(NC(=S)N/N=C(\C)c1cnccn1)C(=O)OC` (stereo not drawn), the TGI in [1], in test [2], in test [3], in test [4], in [5] and in test [6] was greater than 100 µM each time. The TGI in test [7], in [9], in [10], in [11], in test [12] and in test [13] was greater than 100 µM each time. Moreover, the TGI in test [14], in [15], in [16] and in test [17] was greater than 100 µM in each case.
